In US12643859B2, “Pyridyl oxycarboxylic acid oxime derivative and preparation method therefor, weeding composition and application thereof” (Qingdao Kingagroot Chemical Compound Co., Ltd., priority 2018, dated 2026):

system: Indica rice; assay: Post-emergence test experiment, crop selectivity; format: in vivo; conditions: post-emergence spray, 600 g a.i./ha plus water 450 kg/ha, 3 weeks in greenhouse
Procedure: (§1) The above described growth inhibition rate is fresh weight inhibition rate.
(§2) Post-emergence test experiment: Monocotyledonous and dicotyledonous weed seeds and main crop seeds (i. e. wheat, corn, rice, soybean, cotton, oilseed, millet and sorghum.) were put into a plastic pot loaded with soil. Then covered with 0.5-2 cm soil, the seeds were allowed to grow in good greenhouse environment. The test plants were treated at 2-3 leaf stage 2 weeks after sowing. The test compounds of the invention were dissolved with acetone respectively, then added with tween-80, and using 1.5 liters per hectare of an emulsible concentrate of methyl oleate as a synergist, and diluted by certain amount of water to certain concentration. The solution was sprayed to the plants with a sprayer. Then the plants were cultured for 3 weeks in the greenhouse, and the experiment result of weed controlling effect was listed in tables 3-4.

SMILES	Activity level (fresh weight growth inhibition rate), Indica rice
CCOC(=NOC(=O)C(C)Oc1nc(F)c(Cl)c(N)c1Cl)c1ccc(NC(C)=O)cc1 (stereo not drawn) [Compound 88]	0 (Level 0: the growth inhibition rate is less than 5%)
CC(=NOC(=O)C(C)Oc1nc(F)c(Cl)c(N)c1Cl)c1ccc(Cl)cc1 (stereo not drawn) [Compound 70]	0 (Level 0: the growth inhibition rate is less than 5%)
COc1ccccc1C(F)=NOC(=O)C(C)Oc1nc(F)c(Cl)c(N)c1Cl (stereo not drawn) [Compound 84]	0 (Level 0: the growth inhibition rate is less than 5%)

system: Japonica rice; assay: Post-emergence test experiment, crop selectivity; format: in vivo; conditions: post-emergence spray, 600 g a.i./ha plus water 450 kg/ha, 3 weeks in greenhouse
Procedure: as §1, §2

SMILES	Activity level (fresh weight growth inhibition rate), Japonica rice
CCOC(=NOC(=O)C(C)Oc1nc(F)c(Cl)c(N)c1Cl)c1ccc(NC(C)=O)cc1 (stereo not drawn) [Compound 88]	0 (Level 0: the growth inhibition rate is less than 5%)
CC(=NOC(=O)C(C)Oc1nc(F)c(Cl)c(N)c1Cl)c1ccc(Cl)cc1 (stereo not drawn) [Compound 70]	0 (Level 0: the growth inhibition rate is less than 5%)
COc1ccccc1C(F)=NOC(=O)C(C)Oc1nc(F)c(Cl)c(N)c1Cl (stereo not drawn) [Compound 84]	0 (Level 0: the growth inhibition rate is less than 5%)

system: Cyperus iria; assay: Post-emergence test experiment, weed control; format: in vivo; conditions: post-emergence spray, 600 g a.i./ha plus water 450 kg/ha, 3 weeks in greenhouse
Procedure: as §1, §2

SMILES	Activity level (fresh weight growth inhibition rate), Cyperus iria
CCOC(=NOC(=O)C(C)Oc1nc(F)c(Cl)c(N)c1Cl)c1ccc(NC(C)=O)cc1 (stereo not drawn) [Compound 88]	5 (Level 5: the growth inhibition rate is greater than 85%)
CC(=NOC(=O)C(C)Oc1nc(F)c(Cl)c(N)c1Cl)c1ccc(Cl)cc1 (stereo not drawn) [Compound 70]	5 (Level 5: the growth inhibition rate is greater than 85%)
COc1ccccc1C(F)=NOC(=O)C(C)Oc1nc(F)c(Cl)c(N)c1Cl (stereo not drawn) [Compound 84]	5 (Level 5: the growth inhibition rate is greater than 85%)

system: Monocotyledonous and dicotyledonous weed seeds and main crop seeds; assay: Post-emergence test experiment (Table 3, 1000 g a.i./ha); format: in vivo; conditions: Digitaria sanguinalis, 3 weeks in greenhouse, fresh weight inhibition
How it was run: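 Weeds and crops (wheat, corn, rice, soybean, cotton, oilseed, millet, sorghum) grown in soil in the greenhouse and sprayed post-emergence at 2–3 leaf stage, 2 weeks after sowing. Compound in acetone with tween-80 plus methyl oleate emulsible concentrate (1.5 L/ha) as synergist, diluted in water. Fresh weight inhibition scored after 3 weeks.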

SMILES	Activity level (growth inhibition rate) Digitaria sanguinalis
CCOC(=NOC(=O)C(C)Oc1nc(F)c(Cl)c(N)c1Cl)c1ccc(NC(C)=O)cc1 (stereo not drawn) [Compound 88]	5 (Level 5: the growth inhibition rate is greater than 85%)
CC(=NOC(=O)C(C)Oc1nc(F)c(Cl)c(N)c1Cl)c1ccc(Cl)cc1 (stereo not drawn) [Compound 70]	5 (Level 5: the growth inhibition rate is greater than 85%)
COc1ccccc1C(F)=NOC(=O)C(C)Oc1nc(F)c(Cl)c(N)c1Cl (stereo not drawn) [Compound 84]	5 (Level 5: the growth inhibition rate is greater than 85%)

same assay, conditions: Echinochloa crusgalli, 3 weeks in greenhouse, fresh weight inhibition

SMILES	Activity level (growth inhibition rate) Echinochloa crusgalli
CCOC(=NOC(=O)C(C)Oc1nc(F)c(Cl)c(N)c1Cl)c1ccc(NC(C)=O)cc1 (stereo not drawn) [Compound 88]	5 (Level 5: the growth inhibition rate is greater than 85%)
CC(=NOC(=O)C(C)Oc1nc(F)c(Cl)c(N)c1Cl)c1ccc(Cl)cc1 (stereo not drawn) [Compound 70]	5 (Level 5: the growth inhibition rate is greater than 85%)
COc1ccccc1C(F)=NOC(=O)C(C)Oc1nc(F)c(Cl)c(N)c1Cl (stereo not drawn) [Compound 84]	5 (Level 5: the growth inhibition rate is greater than 85%)

same assay, conditions: Galium spurium, 3 weeks in greenhouse, fresh weight inhibition

SMILES	Activity level (growth inhibition rate) Galium spurium
CCOC(=NOC(=O)C(C)Oc1nc(F)c(Cl)c(N)c1Cl)c1ccc(NC(C)=O)cc1 (stereo not drawn) [Compound 88]	5 (Level 5: the growth inhibition rate is greater than 85%)
CC(=NOC(=O)C(C)Oc1nc(F)c(Cl)c(N)c1Cl)c1ccc(Cl)cc1 (stereo not drawn) [Compound 70]	5 (Level 5: the growth inhibition rate is greater than 85%)
COc1ccccc1C(F)=NOC(=O)C(C)Oc1nc(F)c(Cl)c(N)c1Cl (stereo not drawn) [Compound 84]	5 (Level 5: the growth inhibition rate is greater than 85%)

same assay, conditions: Leptochloa chinensis, 3 weeks in greenhouse, fresh weight inhibition

SMILES	Activity level (growth inhibition rate) Leptochloa chinensis
CCOC(=NOC(=O)C(C)Oc1nc(F)c(Cl)c(N)c1Cl)c1ccc(NC(C)=O)cc1 (stereo not drawn) [Compound 88]	5 (Level 5: the growth inhibition rate is greater than 85%)
CC(=NOC(=O)C(C)Oc1nc(F)c(Cl)c(N)c1Cl)c1ccc(Cl)cc1 (stereo not drawn) [Compound 70]	5 (Level 5: the growth inhibition rate is greater than 85%)
COc1ccccc1C(F)=NOC(=O)C(C)Oc1nc(F)c(Cl)c(N)c1Cl (stereo not drawn) [Compound 84]	5 (Level 5: the growth inhibition rate is greater than 85%)

same assay, conditions: Monochoria Vaginalis, 3 weeks in greenhouse, fresh weight inhibition

SMILES	Activity level (growth inhibition rate) Monochoria Vaginalis
CCOC(=NOC(=O)C(C)Oc1nc(F)c(Cl)c(N)c1Cl)c1ccc(NC(C)=O)cc1 (stereo not drawn) [Compound 88]	5 (Level 5: the growth inhibition rate is greater than 85%)
CC(=NOC(=O)C(C)Oc1nc(F)c(Cl)c(N)c1Cl)c1ccc(Cl)cc1 (stereo not drawn) [Compound 70]	5 (Level 5: the growth inhibition rate is greater than 85%)
COc1ccccc1C(F)=NOC(=O)C(C)Oc1nc(F)c(Cl)c(N)c1Cl (stereo not drawn) [Compound 84]	5 (Level 5: the growth inhibition rate is greater than 85%)

same assay, conditions: Murdannia triquetra, 3 weeks in greenhouse, fresh weight inhibition

SMILES	Activity level (growth inhibition rate) Murdannia triquetra
CCOC(=NOC(=O)C(C)Oc1nc(F)c(Cl)c(N)c1Cl)c1ccc(NC(C)=O)cc1 (stereo not drawn) [Compound 88]	5 (Level 5: the growth inhibition rate is greater than 85%)
CC(=NOC(=O)C(C)Oc1nc(F)c(Cl)c(N)c1Cl)c1ccc(Cl)cc1 (stereo not drawn) [Compound 70]	5 (Level 5: the growth inhibition rate is greater than 85%)
COc1ccccc1C(F)=NOC(=O)C(C)Oc1nc(F)c(Cl)c(N)c1Cl (stereo not drawn) [Compound 84]	5 (Level 5: the growth inhibition rate is greater than 85%)

same assay, conditions: Setaria viridis, 3 weeks in greenhouse, fresh weight inhibition

SMILES	Activity level (growth inhibition rate) Setaria viridis
CCOC(=NOC(=O)C(C)Oc1nc(F)c(Cl)c(N)c1Cl)c1ccc(NC(C)=O)cc1 (stereo not drawn) [Compound 88]	5 (Level 5: the growth inhibition rate is greater than 85%)
CC(=NOC(=O)C(C)Oc1nc(F)c(Cl)c(N)c1Cl)c1ccc(Cl)cc1 (stereo not drawn) [Compound 70]	5 (Level 5: the growth inhibition rate is greater than 85%)
COc1ccccc1C(F)=NOC(=O)C(C)Oc1nc(F)c(Cl)c(N)c1Cl (stereo not drawn) [Compound 84]	5 (Level 5: the growth inhibition rate is greater than 85%)

system: Rice; assay: Transplanted rice safety evaluation; format: in vivo; conditions: 1000 g a.i./ha, transplanted 3 leaf stage japonica rice, treated 5 days after transplantation, 21 days after treatment
Procedure: as §1
In addition, the rice field soil that loaded into the 1/1,000,000 ha pot was leveled to keep water storage at 3-4 cm depth. The 3 leaf stage rice (japonica rice) was transplanted at 3 cm of transplanting depth the next day. The compound of the present invention was treated by the same way after 5 days of transplantation.
The fertility condition of Scirpus juncoides, Sagittaria trifolia and Monochoria vaginalis 14 days after the treatment of the compound of the invention and the fertility condition of rice 21 days after the treatment of the compound of the invention respectively with the naked eye. Evaluate the weed control effect with 0-5 activity standard level.

SMILES	Safety, 0-5 activity standard level, Rice
CCOC(=NOC(=O)C(C)Oc1nc(F)c(Cl)c(N)c1Cl)c1ccc(NC(C)=O)cc1 (stereo not drawn) [Compound 88]	0 (Level 0: the growth inhibition rate is less than 5%)
CC(=NOC(=O)C(C)Oc1nc(F)c(Cl)c(N)c1Cl)c1ccc(Cl)cc1 (stereo not drawn) [Compound 70]	0 (Level 0: the growth inhibition rate is less than 5%)
COc1ccccc1C(F)=NOC(=O)C(C)Oc1nc(F)c(Cl)c(N)c1Cl (stereo not drawn) [Compound 84]	0 (Level 0: the growth inhibition rate is less than 5%)

system: Monochoria Vaginalis; assay: Weed control effect evaluation in rice field; format: in vivo; conditions: 1000 g a.i./ha, paddy water application at 0.5 leaf stage, 14 days after treatment; weeds resistant to pyrazosulfuron-ethyl and penoxsulam
Source text: as §1
(§3) Transplanted rice safety evaluation and weed control effect evaluation in rice field: Rice field soil was loaded into a 1/1,000,000 ha pot. The seeds of Scirpus juncoides, Sagittaria trifolia and Monochoria vaginalis were sowed and gently covered with soil, then left to stand still in greenhouse in the state of 0.5-1 cm of water storage. The tuber of Sagittaria trifolia was planted in the next day or 2 days later. It was kept at 3-4 cm of water storage thereafter. The weeds were treated by dripping the WP or SC water diluents prepared according to the common preparation method of the compounds of the present invention with pipette homogeneously to achieve specified effective amount when Scirpus juncoides, and Monochoria vaginalis reached 0.5 leaf stage and Sagittaria trifolia reached the time point of primary leaf stage.
(§4) The fertility condition of Scirpus juncoides, Sagittaria trifolia and Monochoria vaginalis 14 days after the treatment of the compound of the invention and the fertility condition of rice 21 days after the treatment of the compound of the invention respectively with the naked eye. Evaluate the weed control effect with 0-5 activity standard level. Many compounds show excellent activity and selectivity.

SMILES	Weed control effect, 0-5 activity standard level, Monochoria Vaginalis
CCOC(=NOC(=O)C(C)Oc1nc(F)c(Cl)c(N)c1Cl)c1ccc(NC(C)=O)cc1 (stereo not drawn) [Compound 88]	5 (Level 5: the growth inhibition rate is greater than 85%)
CC(=NOC(=O)C(C)Oc1nc(F)c(Cl)c(N)c1Cl)c1ccc(Cl)cc1 (stereo not drawn) [Compound 70]	5 (Level 5: the growth inhibition rate is greater than 85%)
COc1ccccc1C(F)=NOC(=O)C(C)Oc1nc(F)c(Cl)c(N)c1Cl (stereo not drawn) [Compound 84]	5 (Level 5: the growth inhibition rate is greater than 85%)

system: Sagittaria trifolia; assay: Weed control effect evaluation in rice field; format: in vivo; conditions: 1000 g a.i./ha, paddy water application at primary leaf stage, 14 days after treatment; weeds resistant to pyrazosulfuron-ethyl and penoxsulam
Source text: as §1, §3, §4

SMILES	Weed control effect, 0-5 activity standard level, Sagittaria trifolia
CCOC(=NOC(=O)C(C)Oc1nc(F)c(Cl)c(N)c1Cl)c1ccc(NC(C)=O)cc1 (stereo not drawn) [Compound 88]	4 (Level 4: the growth inhibition rate is equal to or greater than 60% and less than 85%)
CC(=NOC(=O)C(C)Oc1nc(F)c(Cl)c(N)c1Cl)c1ccc(Cl)cc1 (stereo not drawn) [Compound 70]	4 (Level 4: the growth inhibition rate is equal to or greater than 60% and less than 85%)
COc1ccccc1C(F)=NOC(=O)C(C)Oc1nc(F)c(Cl)c(N)c1Cl (stereo not drawn) [Compound 84]	4 (Level 4: the growth inhibition rate is equal to or greater than 60% and less than 85%)

system: Scirpus juncoides; assay: Weed control effect evaluation in rice field; format: in vivo; conditions: 1000 g a.i./ha, paddy water application at 0.5 leaf stage, 14 days after treatment; weeds resistant to pyrazosulfuron-ethyl and penoxsulam
Source text: as §1, §3, §4

SMILES	Weed control effect, 0-5 activity standard level, Scirpus juncoides
CCOC(=NOC(=O)C(C)Oc1nc(F)c(Cl)c(N)c1Cl)c1ccc(NC(C)=O)cc1 (stereo not drawn) [Compound 88]	4 (Level 4: the growth inhibition rate is equal to or greater than 60% and less than 85%)
CC(=NOC(=O)C(C)Oc1nc(F)c(Cl)c(N)c1Cl)c1ccc(Cl)cc1 (stereo not drawn) [Compound 70]	4 (Level 4: the growth inhibition rate is equal to or greater than 60% and less than 85%)
COc1ccccc1C(F)=NOC(=O)C(C)Oc1nc(F)c(Cl)c(N)c1Cl (stereo not drawn) [Compound 84]	4 (Level 4: the growth inhibition rate is equal to or greater than 60% and less than 85%)
